Measurements published in patent US7993687B2, “Compositions and methods for management of diabetes” (priority 2006, dated 2011).

How the values were obtained:
[1] = tested on: plasma glucose; conditions: normal rats; synthetic D-CI intragastrically 2 hours before intraperitoneal glucose load (4 g/kg); cited from earlier work
[2] = tested on: PDK-1 (Ser241); experiment: Western blot of PDK-1 phosphorylation in H4IIE cells; assay type: cell-based, rat; conditions: for PDK-1 (Ser241) phosphorylation, stimulation (fold) relative to the control: 6 min, one experiment
Method: (§1) Tissue culture media, antibiotics, fetal bovine serum (FBS) and Nunc tissue culture plates were purchased from Invitrogen Canada Inc. (Burlington, Ontario, Canada, L7P 1A1). Insulin (Sigma-Aldrich Canada Ltd., Oakville, Ontario, Canada, L6H 6J8) was dissolved in water and added directly to cells at a concentration of 250 nM unless otherwise indicated. The BWE was prepared and analyzed as described in Example 1. Two μL of the BWE were added directly to cells unless otherwise indicated. This amount was chosen on the basis of equivalence to insulin. Myo-inositol (Sigma-Aldrich Canada Ltd.) and D-chiro-inositol (Industrial Research Ltd., Wellington, New Zealand) were dissolved in water at an equal concentration to the amounts present in the BWE (Table 3) and 2 μL of each solution (0.1% v/v final concentration) was added directly to cells.
(§2) Rat H4IIE hepatoma cells (American Type Culture Collection, CRL 1548) were cultured following the method disclosed by Yau et al., (1998, Eur. J. Biochem. 253: 91-1). The H4IIE cells were maintained in α-modified Eagle's media containing 10% FBS, 2 mM glutamine, 25 μg·mL^−1 streptomycin and 25 units·mL^−1 penicillin. Cells were plated and grown to 70% confluence. All cells were placed into serum-free medium for 72 h before addition of stimulating agents to ensure entry into a quiescent state.
(§3) Cultures of quiescent H4IIE cells or quiescent FAO cells were placed into 12-well culture dishes containing 2 mL serum-free medium, and then stimulated by direct addition of the inhibitors listed in Table 1 (volumes of additions were 10 μL or less) without replacing the medium. […] The cells in 12-well culture dishes were incubated with stimulating agents for 6 minutes and rinsed with phosphate buffered saline (PBS; 0.9% NaCl, 0.1 M Na3PO4, pH 7.1).
(§4) Cellular protein extracts were prepared by addition of 200 μL 2×SDS/gel loading buffer (0.125 M Tris pH 6.8, 2% SDS, 10% glycerol) to H4IIE cells in 12-well culture dishes. The samples were briefly sonicated, and protein content measured using the BCA protein assay kit. Aliquots containing equal amounts of protein were mixed with bromophenol blue (0.5% (w/v) final concentration) and 2-mercaptoethanol (5% (v/v) final concentration), heated at 95° C. and loaded onto 7.5% or 10% polyacrylamide gels. […] Primary antibodies (diluted 1:1000 in 3% (w/v) BSA) were incubated with the membrane for 60 min at 22° C. Membranes were subsequently washed four times and incubated for an additional 60 min at 1 8-22° C. in 1% (w/v) BSA-TBST with diluted HRP-coupled secondary antibody (1:10 000). HRP was detected using the ECL chemiluminescent system after the membranes had been washed four times.
(§5) Quantification of data obtained on film (Kodak X-omat) was accomplished with a GS800 imaging densitometer (Bio-Rad Laboratories) under nonsaturating conditions with local background subtraction. Although multiple exposures were acquired to ensure the absence of film saturation, the experimental figures typically show longer exposures selected specifically for visual presentation and not necessarily used for data analysis. Graphical data are presented as means±SE for a minimum of three replicate samples.

[3] = tested on: Raf (Ser259); experiment: Western blot of Raf phosphorylation in H4IIE cells; assay type: cell-based, rat; conditions: for Raf (Ser259) phosphorylation, stimulation (fold) relative to the control: 6 min, one experiment
Method: as §1, §2, §3, §4, §5

[4] = tested on: S6 ribosomal protein (Ser235/236); experiment: Western blot of ribosomal protein S6 phosphorylation in H4IIE cells; assay type: cell-based, rat; conditions: 6 minutes
Method: as §1, with “Myo-inositol (Sigma-Aldrich Canada Ltd.) and D-chiro-inositol (Industrial Research Ltd., Wellington, New Zealand) were dissolved in water at an equal concentration to the amounts present in the BWE (Table 3) and 2 μL of each solution (0.1% v/v final concentration) was added directly to cells.” left out
Cellular protein extracts were prepared by addition of 200 μL 2×SDS/gel loading buffer (0.125 M Tris pH 6.8, 2% SDS, 10% glycerol) to H4IIE cells in 12-well culture dishes. The samples were briefly sonicated, and protein content measured using the BCA protein assay kit. […] HRP was detected using the ECL chemiluminescent system after the membranes had been washed four times.
Quantification of data obtained on film (Kodak X-omat) was accomplished with a GS800 imaging densitometer (Bio-Rad Laboratories) under nonsaturating conditions with local background subtraction. […]

[5] = BWE-stimulated, 15-min preincubation with the inhibitor (None = BWE alone)
[6] = insulin-stimulated, 15-min preincubation with the inhibitor (None = insulin alone)

OC1C(O)C(O)C(O)C(O)C1O [D-CI, D-chiro-inositol]
decrease in plasma glucose [1]: 30-50%

COc1cccc(-c2cc(=O)c3ccccc3o2)c1N [PD98059]
PDK-1 (Ser241) phosphorylation, stimulation (fold) relative to the control [2, 5]: 0.54 fold
PDK-1 (Ser241) phosphorylation, stimulation (fold) relative to the control [2, 6]: 1.89 fold
Raf (Ser259) phosphorylation, stimulation (fold) relative to the control [3, 5]: 0.20 fold
Raf (Ser259) phosphorylation, stimulation (fold) relative to the control [3, 6]: 0.20 fold

insulin: Insulin (Sigma-Aldrich) dissolved in water, positive comparator
phosphorylation (activation) of PDK ([2]; 6 minutes): not stimulated
PDK-1 (Ser241) phosphorylation, stimulation (fold) relative to the control [2, 6]: 1.57 fold
phosphorylation of ribosomal protein S6 [4]: insulin did
phosphorylation (activation) of RAF ([3]; 6 minutes): not stimulated
Raf (Ser259) phosphorylation, stimulation (fold) relative to the control [3, 6]: 0.53 fold
